According to the CheMixHub viscosity set:

Test: xn = mol fraction of the nth substance listed

C1CC[C@H]2CCCC[C@H]2C1 + CC1CCCCC1
viscosity [mPa·s], 100 kPa
Conditions | x2 = 0.125 | x2 = 0.25 | x2 = 0.375 | x2 = 0.5 | x2 = 0.625 | x2 = 0.75 | x2 = 0.875
293.15 K | 2.749 | 2.287 | 1.867 | 1.541 | 1.3 | 1.076 | 0.894
303.15 K | 2.241 | 1.912 | 1.567 | 1.312 | 1.096 | 0.935 | 0.776
313.15 K | 1.858 | 1.6 | 1.326 | 1.123 | 0.944 | 0.824 | 0.674
323.15 K | 1.578 | 1.367 | 1.168 | 0.986 | 0.837 | 0.701 | 0.604

CC(CC(C)(C)C)CC(C)(C)CC(C)(C)C (stereo not drawn) + CC1CCCCC1
viscosity [mPa·s], 100 kPa
Conditions | x2 = 0.125 | x2 = 0.25 | x2 = 0.375 | x2 = 0.5 | x2 = 0.625 | x2 = 0.75 | x2 = 0.875
293.15 K | 3.188 | 2.761 | 2.275 | 1.89 | 1.52 | 1.244 | 0.967
303.15 K | 2.553 | 2.272 | 1.864 | 1.556 | 1.283 | 1.047 | 0.834
313.15 K | 2.1 | 1.886 | 1.574 | 1.32 | 1.096 | 0.908 | 0.725
323.15 K | 1.766 | 1.538 | 1.329 | 1.136 | 0.953 | 0.802 | 0.641

CCCC(C)O (stereo not drawn) + CC1CCCCC1
viscosity [mPa·s], 100 kPa
Conditions | x2 = 0.081 | x2 = 0.16 | x2 = 0.2399 | x2 = 0.3501 | x2 = 0.4399 | x2 = 0.56 | x2 = 0.6499 | x2 = 0.7401 | x2 = 0.8499 | x2 = 0.94
293.15 K | 3.09 | 2.46 | 1.96 | 1.48 | 1.23 | 1.05 | 0.98 | 0.93 | 0.88 | 0.8
298.15 K | 2.56 | 2.05 | 1.66 | 1.26 | 1.06 | 0.92 | 0.86 | 0.82 | 0.79 | 0.73
303.15 K | 2.15 | 1.74 | 1.43 | 1.11 | 0.95 | 0.83 | 0.79 | 0.77 | 0.73 | 0.68
308.15 K | 1.83 | 1.5 | 1.24 | 0.99 | 0.86 | 0.75 | 0.71 | 0.69 | 0.67 | 0.63
313.15 K | 1.57 | 1.31 | 1.1 | 0.89 | 0.78 | 0.7 | 0.67 | 0.65 | 0.63 | 0.59
318.15 K | 1.35 | 1.13 | 0.96 | 0.8 | 0.72 | 0.66 | 0.64 | 0.62 | 0.6 | 0.57
323.15 K | 1.17 | 1 | 0.86 | 0.72 | 0.66 | 0.61 | 0.58 | 0.57 | 0.56 | 0.54

COCCO + CC1COC(=O)O1
viscosity [mPa·s], 101.33 kPa
Conditions | 298.15 K | 308.15 K | 318.15 K
x1 = 0.0271 | 2.41 | – | –
x1 = 0.0632 | 2.298 | 1.913 | 1.612
x1 = 0.0927 | 2.24 | – | –
x1 = 0.1045 | 2.193 | 1.824 | 1.541
x1 = 0.1523 | 2.104 | 1.756 | 1.484
x1 = 0.1824 | 2.057 | – | –
x1 = 0.2117 | 2.004 | 1.679 | 1.423
x1 = 0.2527 | 1.95 | 1.634 | 1.381
x1 = 0.2995 | 1.917 | – | –
x1 = 0.305 | 1.89 | 1.581 | 1.339
x1 = 0.3489 | 1.843 | 1.537 | 1.306
x1 = 0.397 | 1.794 | 1.492 | 1.273
x1 = 0.4053 | 1.813 | – | –
x1 = 0.4225 | 1.787 | – | –
x1 = 0.4547 | 1.745 | 1.456 | 1.224
x1 = 0.4942 | 1.738 | – | –
x1 = 0.4979 | 1.717 | 1.43 | 1.214
x1 = 0.5467 | 1.7 | – | –
x1 = 0.5531 | 1.68 | – | 1.183
x1 = 0.5954 | 1.664 | 1.385 | 1.172
x1 = 0.5956 | 1.674 | – | –
x1 = 0.6388 | – | 1.361 | 1.147
x1 = 0.6429 | 1.652 | – | –
x1 = 0.6954 | 1.619 | 1.341 | 1.127
x1 = 0.7027 | 1.626 | – | –
x1 = 0.7088 | 1.626 | – | –
x1 = 0.7346 | 1.593 | 1.325 | 1.111
x1 = 0.7911 | 1.602 | – | –
x1 = 0.7959 | 1.574 | 1.31 | 1.098
x1 = 0.8414 | 1.569 | 1.297 | 1.083
x1 = 0.864 | 1.575 | – | –
x1 = 0.9025 | 1.545 | 1.276 | 1.076
x1 = 0.9325 | 1.552 | – | –
x1 = 0.9593 | 1.546 | 1.266 | 1.055
x2 = 0.0163 | 1.534 | – | –

CCCC(=O)O + CC#N
viscosity [mPa·s], 101 kPa
Conditions | x1 = 0.0598 | x1 = 0.1252 | x1 = 0.1971 | x1 = 0.2763 | x1 = 0.3641 | x1 = 0.4621 | x1 = 0.572 | x1 = 0.6961 | x1 = 0.8375
298.15 K | 0.3944 | 0.4377 | 0.5044 | 0.5968 | 0.717 | 0.8653 | 1.039 | 1.229 | 1.415
308.15 K | 0.3452 | 0.3849 | 0.4455 | 0.5285 | 0.6349 | 0.7632 | 0.9084 | 1.058 | 1.187
318.15 K | 0.3146 | 0.3681 | 0.4272 | 0.4922 | 0.5632 | 0.6398 | 0.7209 | 0.8039 | 0.8836

COCCO + CC#N
298 K, 101.33 kPa
Conditions | viscosity [mPa·s]
x1 = 0.097 | 0.391
x1 = 0.1987 | 0.455
x1 = 0.2949 | 0.529
x1 = 0.404 | 0.631
x1 = 0.4985 | 0.736
x1 = 0.5987 | 0.866
x1 = 0.6932 | 0.991
x1 = 0.7991 | 1.171
x1 = 0.9035 | 1.361
